Measured values: ChEMBL document CHEMBL1201862, “PubChem BioAssay data set” (2004)
Structures can show the parent of a compound that is named as a salt. Active and inactive are the calls of the source.

Assays:
[1] = P. falciparum Dd2 growth inhibitors, dose response, SYBR Green, dry powder samples, set 4 (AID 1159572); type: functional, cell-based
[2] = P. falciparum Dd2 growth inhibitors, dose response, SYBR Green, dry powder samples, set 9 (AID 1159568); type: functional, cell-based
[3] = HepG2 cell cytotoxicity, dose response, cytotoxicity control, plate reader, dry powder, set 6 (AID 743311); type: functional, cell-based
[4] = A549 cell cytotoxicity, dose response, cytotoxicity control, plate reader, dry powder, set 6 (AID 743312); type: functional, cell-based
[5] = cells; conditions: HEK293
[6] = inhibitors of firefly luciferase expression or activity, dose response, H4 neuroglioma cells, luminescence (AID 1990); type: functional, cell-based
[7] = Luminescence Cell-Based Dose Response HTS to Identify Inhibitors of 5'UTR Stem-Loop Driven Prion Protein mRNA Translation in H4 Neuroglioblastoma Cells. [Related pubchem assays: 1827 (Project Summary), 1813 (Primary HTS)]; type: functional
[8] = inhibitors of SNCA 5'UTR-driven reporter translation, confirmation, H4 neuroglioma cells, luminescence (AID 1988); type: functional, cell-based
[9] = biological target: FAD-linked sulfhydryl oxidase ALR (Homo sapiens, UniProt P55789); experiment: inhibitors of human ALR sulfhydryl oxidase, dose response, biochemical, H2O2 detection, luminescence, cherry-pick (AID 493248)
Chain of FAD-linked sulfhydryl oxidase ALR (P55789 whole entry): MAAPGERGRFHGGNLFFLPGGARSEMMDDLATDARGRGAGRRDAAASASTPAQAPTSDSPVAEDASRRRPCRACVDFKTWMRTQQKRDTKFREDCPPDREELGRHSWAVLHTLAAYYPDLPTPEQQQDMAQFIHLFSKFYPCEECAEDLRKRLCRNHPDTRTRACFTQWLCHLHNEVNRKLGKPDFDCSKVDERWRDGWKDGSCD

[10] = system: P388/ADR; experiment: cells; type: functional; conditions: Mus musculus
[11] = system: SN12K1; experiment: cells; type: functional; conditions: Homo sapiens
[12] = system: P388; experiment: cells; type: functional; conditions: Mus musculus
[13] = HeLa 2N DNA content increase, dose response, cell-based, IC50 (AID 1117349); type: functional
[14] = HeLa 4N DNA content increase, dose response, cell-based, IC50 (AID 1117351); type: functional
[15] = system: HEK293; experiment: Fluorescence-based counterscreen for potentiators or agonists of NPY-Y2: cell-based high-throughput dose response assay to identify inhibitors of cyclic nucleotide gated ion channel (CNGC) activity. In this assay, the parental HEK293 cell line transfected with a cyclic-nucleotide gated ion channel (CNGC)-based cAMP sensor is used to measure inhibition of isoproterenol-induced CNGC activity by test compound.; type: functional; conditions: Homo sapiens;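 note: stimulus is 1 µM isoproterenol at EC100 plus PDE inhibitor Ro 20-1724 at 25 µM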
[16] = Concentration-dependent survival of SW480 colon cancer line, luminescence detection with CellTiter-Glo, half-maximal inhibitory concentration (AID 1117338); type: functional
[17] = RKO cell viability reduction, dose response, CellTiter-Glo luminescence (AID 1117322); type: functional
[18] = cytotoxicity toward HCT116 cells – cell-based, CellTiter-Glo luminescence, IC50, dose response (AID 1117332); type: functional; conditions: HCT-116
[19] = SNU-C1 cell viability reduction, dose response, CellTiter-Glo luminescence (AID 1117323); type: functional, cell-based
[20] = cytotoxicity toward Colo320 cells – cell-based, CellTiter-Glo luminescence, IC50, dose response (AID 1117334); type: functional; conditions: COLO 320
[21] = cytotoxicity toward HT-29 cells – cell-based, CellTiter-Glo luminescence, IC50, dose response (AID 1117330); type: functional
[22] = CellTiter-Glo luminescent dose response of DLD-1 viability loss (AID 1117352); type: functional
[23] = HCT116 cell viability decrease, GSK3B pretreatment – CellTiter-Glo, IC50, dose response (AID 1117339); type: functional; conditions: HCT-116

CCC(=O)N1CC2(CCN(C(=O)Nc3ccccc3F)CC2)c2c([nH]c3cc(OC)ccc23)[C@@H]1CO
AC50 [1]: 0.294 µM (active) | AC50 [2]: 0.561 µM (active)

Cc1cc2ncn(CCOc3ccccc3C)c2cc1C
AC50 [3]: 36.5 µM (active) | AC50 [4]: 11.4 µM (active) | AC50 [5]: 47.4 µM (active)

O=C(O)CCCc1ccc(N(CCCl)CCCl)cc1 [CHLORAMBUCIL]
EC50 [6]: > 120 µM (not active) | EC50 [7]: > 120 µM (not active) | EC50 [8]: 32.6 µM (active) | AC50 [9]: < 0.005 µM (active) | GI50 [10]: 6.25 µM (inactive) | GI50 [11]: 49.5 µM (inactive) | GI50 [12]: 3.73 µM (inactive) | IC50 [13]: > 10 µM (inactive) | IC50 [14]: > 10 µM (inactive)

COCCc1ccc(OCC(O)CNC(C)C)cc1 (stereo not drawn) [METOPROLOL TARTRATE]
EC50 [15]: 2.99 µM (active)

CNS(=O)(=O)CCc1ccc2[nH]cc(C3CCN(C)CC3)c2c1 [NARATRIPTAN HYDROCHLORIDE]
IC50 [16]: > 20 µM (inactive) | IC50 [17]: > 20 µM (inactive) | IC50 [18]: > 20 µM (inactive) | IC50 [19]: > 20 µM (inactive) | IC50 [20]: > 20 µM (inactive) | IC50 [21]: > 20 µM (inactive) | IC50 [22]: > 20 µM (inactive) | IC50 [23]: 12.1 µM (inactive)
